US10280150B2 (FORMA TM2, Inc., priority 2014, dated 2019)

How the values were obtained:
[1] = molecular target: IDH1-R132H recombinant protein (Homo sapiens (Human), UniProt O75874, R132H); test: IDH1-R132H enzymatic assay (inhibition of NADPH consumption, diaphorase/resazurin readout); format: biochemical; conditions: read-out: Enzyme IDH1 R132H IC50 (Range)
Protocol: (§1) Assays were performed in a 384-well black plate. An aliquot of 250 nL of compound was incubated with 10 μL of 30 nM IDH1-R132H or 10 nM IDH1-R132C recombinant protein in assay buffer (50 mM Tris pH=7.5, 150 mM NaCl, 5 mM MgCl2, 0.1% (w/v) Bovine Serum Albumin, and 0.01% Triton X-100) in each well at 25° C. for 15 minutes. After the plate was centrifuged briefly, an aliquot of 10 μL of 2 mM α-ketoglutarate and 20 μM NADPH solution prepared in assay buffer was then added to each well and the reaction was maintained at 25° C. for 45 minutes. An aliquot of 10 μL of diaphorase solution (0.15 U/mL diaphorase and 30 µM Resazurin in assay buffer) was added to each well. The plate was maintained at 25° C. for 15 minutes and then read on a plate reader with excitation and emission wavelengths at 535 nm and 590 nm, respectively. The IC50 of a given compound was calculated by fitting the dose response curve of inhibition of NADPH consumption at a given concentration with the four parameter logistic equation.

[2] = molecular target: IDH1-R132C recombinant protein (Homo sapiens (Human), UniProt O75874, R132C); test: IDH1-R132C enzymatic assay (inhibition of NADPH consumption, diaphorase/resazurin readout); format: biochemical; conditions: read-out: Enzyme IDH1 R132C IC50 (Range)
Protocol: as §1

Sequence of IDH1-R132C recombinant protein (O75874 whole entry R132C): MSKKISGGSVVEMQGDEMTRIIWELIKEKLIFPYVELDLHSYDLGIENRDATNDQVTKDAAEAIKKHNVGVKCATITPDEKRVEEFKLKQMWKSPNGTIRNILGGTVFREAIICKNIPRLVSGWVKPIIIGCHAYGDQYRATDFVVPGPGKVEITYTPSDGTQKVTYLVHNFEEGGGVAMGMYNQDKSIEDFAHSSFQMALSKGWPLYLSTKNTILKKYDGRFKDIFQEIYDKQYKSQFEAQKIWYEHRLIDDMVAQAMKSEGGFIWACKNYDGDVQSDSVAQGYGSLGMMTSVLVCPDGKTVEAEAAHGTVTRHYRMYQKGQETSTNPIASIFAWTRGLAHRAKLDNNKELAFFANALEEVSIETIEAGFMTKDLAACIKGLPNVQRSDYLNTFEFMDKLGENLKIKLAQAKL
Sequence of IDH1-R132H recombinant protein (O75874 whole entry R132H): as the sequence (O75874 whole entry R132C) above, with C132H counted along it

`C[C@H](Nc1nccc(N2CCCC2=O)n1)c1cc2cc(Cl)ccc2[nH]c1=O` [Compound I-138] was tested, and the IC50 [1] was under 0.1 µM and the IC50 [2] was 0.1 to 1 µM.
With `COc1nc(N[C@H](C)c2cc3cc(Cl)c(F)cc3[nH]c2=O)ncc1C#N` [Compound I-141, (R)-2-((1-(6-chloro-7-fluoro-2-oxo-1,2-dihydroquinolin-3-yl)ethyl)amino)-4-methoxypyrimidine-5-carbonitrile] the IC50 [1] was over 10 µM and the IC50 [2] was over 10 µM.
`COc1cc2[nH]c(=O)c([C@@H](C)Nc3ncc(C#N)c(OC)n3)cc2cc1Cl` [Compound I-144, (R)-2-((1-(6-Chloro-7-methoxy-2-oxo-1,2-dihydroquinolin-3-yl)ethyl)amino)-4-methoxypyrimidine-5-carbonitrile] showed an IC50 [1] of 0.1 to 1 µM and an IC50 [2] of 1 to 10 µM.
With `COc1nc(NC(C)c2cc3cc(Cl)c(OCc4ccccn4)cc3[nH]c2=O)ncc1C#N` (centres unmarked) [Compound I-150] the IC50 [1] was under 0.1 µM and the IC50 [2] was under 0.1 µM.
For `O=C1OCCN1c1ccnc(NC2(c3cc4cc(Cl)ccc4[nH]c3=O)CC2)n1` [Compound I-168], the IC50 [1] was 0.1 to 1 µM and the IC50 [2] was 1 to 10 µM.
`COc1nc(NC2(c3cc4cc(Cl)ccc4[nH]c3=O)CC2)ncc1C#N` [Compound I-169, 2-((1-(6-Chloro-2-oxo-1,2-dihydroquinolin-3-yl)cyclopropyl)amino)-4-methoxypyrimidine-5-carbonitrile] gave an IC50 [1] of 0.1 to 1 µM and an IC50 [2] of 1 to 10 µM.
In the case of `COc1nc(NC(C)c2cc3cc(Cl)c(OCC4CC(F)(F)C4)cc3[nH]c2=O)ncc1C#N` (centres unmarked) [Compound I-172, 2-((1-(6-chloro-7-((3,3-difluorocyclobutyl)methoxy)-2-oxo-1,2-dihydroquinolin-3-yl)ethyl)amino)-4-methoxypyrimidine-5-carbonitrile], the IC50 [1] is reported as under 0.1 µM and the IC50 [2] is reported as 0.1 to 1 µM.
`CC(C)n1cncc1-c1ccnc(N[C@@H](C)c2cc3cc(Cl)ccc3n(C)c2=O)n1` [Compound I-173, (S)-6-chloro-3-(1-((4-(1-isopropyl-1H-imidazol-5-yl)pyrimidin-2-yl)amino)ethyl)-1-methylquinolin-2(1H)-one] showed an IC50 [1] of under 0.1 µM and an IC50 [2] of under 0.1 µM.
Molecule `COc1nc(N[C@H](C)c2cc3cc(Cl)ccc3[nH]c2=O)ncc1C#N` [Compound I-174] has an IC50 [1] of 1 to 10 µM and an IC50 [2] of 1 to 10 µM.
`COc1nc(N[C@@H](C)c2cc3cc(Cl)c(OC(C)C)cc3[nH]c2=O)ncc1C#N` [Compound I-175, (S)-2-((1-(6-chloro-7-isopropoxy-2-oxo-1,2-dihydroquinolin-3-yl)ethyl)amino)-4-methoxypyrimidine-5-carbonitrile] showed an IC50 [1] of under 0.1 µM and an IC50 [2] of under 0.1 µM.
For `COc1nc(N[C@@H](C)c2cc3cc(Cl)c(C4CC4)cc3[nH]c2=O)ncc1C#N` [Compound I-176, (S)-2-((1-(6-chloro-7-cyclopropyl-2-oxo-1,2-dihydroquinolin-3-yl)ethyl)amino)-4-methoxypyrimidine-5-carbonitrile], the IC50 [1] was under 0.1 µM and the IC50 [2] was 0.1 to 1 µM.
`COc1nc(N[C@@H](C)c2cc3ncccc3[nH]c2=O)ncc1C#N` [Compound I-177, (S)—4-methoxy-2-((1-(2-oxo-1,2-dihydro-1,5-naphthyridin-3-yl)ethyl)amino)pyrimidine-5-carbonitrile] was tested, and the IC50 [1] was 1 to 10 µM and the IC50 [2] was over 10 µM.
For `C[C@H](Nc1ncc(C#N)c(=O)[nH]1)c1cc2cc(Cl)ccc2[nH]c1=O` [Compound I-178, (S)-2-((1-(6-chloro-2-oxo-1,2-dihydroquinolin-3-yl)ethyl)amino)-6-oxo-1,6-dihydropyrimidine-5-carbonitrile], the IC50 [1] was under 0.1 µM and the IC50 [2] was 1 to 10 µM.
